Assay results reported in article PMC5218480 (PLoS ONE, 2017).

Tested on: MV-4-11 cells
Experiment: Gene expression microarray analysis (Affymetrix PrimeView) and GSEA
Type: cell-based, human
Parameters: RFU PODN (11730768_x_at) / Fold change /veh PODN (11730768_x_at) / RFU LINC00158 (11744669_a_at) / Fold change /veh LINC00158 (11744669_a_at) / RFU DUSP10 (11751237_a_at) / Fold change /veh DUSP10 (11751237_a_at) / RFU ID3 (11757404_x_at) / Fold change /veh ID3 (11757404_x_at) / RFU PLEKHG5 (11737974_s_at) / Fold change /veh PLEKHG5 (11737974_s_at) / RFU LRRC4B (11730491_at) / Fold change /veh LRRC4B (11730491_at) / RFU GIMAP4 (11747438_a_at) / Fold change /veh GIMAP4 (11747438_a_at) / RFU KRT8 (11758183_x_at) / Fold change /veh KRT8 (11758183_x_at) / RFU CNN1 (11734310_a_at) / Fold change /veh CNN1 (11734310_a_at) / RFU VPS37D (11726825_at) / Fold change /veh VPS37D (11726825_at) / RFU C10orf10 (11716522_x_at) / Fold change /veh C10orf10 (11716522_x_at) / RFU KIR2DL2 /// KIR2DL4 /// KIR2DL5A /// KIR2DL5B /// KIR2DS1 /// KIR2DS2 /// KIR2DS3 /// KIR2DS4 /// KIR3DL3 /// KIR3DL3 /// KIR3DS1 (11738374_at) / Fold change /veh KIR2DL2 /// KIR2DL4 /// KIR2DL5A /// KIR2DL5B /// KIR2DS1 /// KIR2DS2 /// KIR2DS3 /// KIR2DS4 /// KIR3DL3 /// KIR3DL3 /// KIR3DS1 (11738374_at) / RFU C1QL1 (11718748_at) / Fold change /veh C1QL1 (11718748_at) / RFU TMPRSS4 (11747572_a_at) / Fold change /veh TMPRSS4 (11747572_a_at) / RFU HAMP (11756126_x_at) / Fold change /veh HAMP (11756126_x_at) / RFU RNFT2 (11725882_a_at) / Fold change /veh RNFT2 (11725882_a_at) / RFU NR4A2 (11747474_a_at) / Fold change /veh NR4A2 (11747474_a_at) / RFU ABCC12 (11746883_a_at) / Fold change /veh ABCC12 (11746883_a_at) / RFU TMEM136 (11760407_x_at) / Fold change /veh TMEM136 (11760407_x_at) / RFU CLDN22 /// WWC2 (11732394_at) / Fold change /veh CLDN22 /// WWC2 (11732394_at) / RFU HLA-DPB1 (11760878_x_at) / Fold change /veh HLA-DPB1 (11760878_x_at) / RFU SPINT1 (11716480_a_at) / Fold change /veh SPINT1 (11716480_a_at) / RFU GAP43 (11754022_s_at) / Fold change /veh GAP43 (11754022_s_at) / RFU A4GNT (11735810_at) / Fold change /veh A4GNT (11735810_at) / RFU PRB3 (11715151_x_at) / Fold change /veh PRB3 (11715151_x_at) / RFU TUBB4B (11761932_at) / Fold change /veh TUBB4B (11761932_at) / RFU CAPN14 (11732068_a_at) / Fold change /veh CAPN14 (11732068_a_at) / RFU TMCC2 (11721928_a_at) / Fold change /veh TMCC2 (11721928_a_at) / RFU IRGQ (11745062_a_at) / Fold change /veh IRGQ (11745062_a_at) / RFU FAM174B (11720279_a_at) / Fold change /veh FAM174B (11720279_a_at) / RFU TMPRSS4 (11748680_a_at) / Fold change /veh TMPRSS4 (11748680_a_at) / RFU FAM212B (11763350_a_at) / Fold change /veh FAM212B (11763350_a_at) / RFU PLEKHG5 (11743358_a_at) / Fold change /veh PLEKHG5 (11743358_a_at) / RFU ZSCAN30 (11745921_a_at) / Fold change /veh ZSCAN30 (11745921_a_at) / RFU CMKLR1 (11741424_a_at) / Fold change /veh CMKLR1 (11741424_a_at) / RFU LOC101060620 /// MAPK8IP1 (11723275_at) / Fold change /veh LOC101060620 /// MAPK8IP1 (11723275_at) / RFU SPTSSB (11747773_x_at) / Fold change /veh SPTSSB (11747773_x_at) / RFU PRSS12 (11739890_at) / Fold change /veh PRSS12 (11739890_at) / RFU BIN1 (11741810_x_at) / Fold change /veh BIN1 (11741810_x_at) / RFU WNT11 (11732464_a_at) / Fold change /veh WNT11 (11732464_a_at) / RFU C10orf10 (11716521_a_at) / Fold change /veh C10orf10 (11716521_a_at) / RFU C5orf56 (11738089_at) / Fold change /veh C5orf56 (11738089_at) / RFU CYB561 (11721691_x_at) / Fold change /veh CYB561 (11721691_x_at) / RFU ANKRD19P (11752326_a_at) / Fold change /veh ANKRD19P (11752326_a_at) / RFU OR2T12 /// OR2T33 /// OR2T8 (11738714_s_at) / Fold change /veh OR2T12 /// OR2T33 /// OR2T8 (11738714_s_at) / RFU VCAN (11748164_a_at) / Fold change /veh VCAN (11748164_a_at) / RFU JSRP1 (11732532_at) / Fold change /veh JSRP1 (11732532_at) / RFU KRTAP10-11 (11738290_x_at) / Fold change /veh KRTAP10-11 (11738290_x_at) / RFU MYO3A (11730013_a_at) / Fold change /veh MYO3A (11730013_a_at) / RFU EBF3 (11725865_a_at) / Fold change /veh EBF3 (11725865_a_at) / RFU CAMK2N1 (11719241_x_at) / Fold change /veh CAMK2N1 (11719241_x_at) / RFU C5orf56 (11738088_a_at) / Fold change /veh C5orf56 (11738088_a_at) / RFU OLFML3 (11715873_a_at) / Fold change /veh OLFML3 (11715873_a_at) / RFU LOC100653217 /// NTM (11731650_a_at) / Fold change /veh LOC100653217 /// NTM (11731650_a_at) / RFU MAPK11 (11762145_a_at) / Fold change /veh MAPK11 (11762145_a_at) / RFU FIZ1 (11724087_x_at) / Fold change /veh FIZ1 (11724087_x_at) / RFU OASL (11726364_x_at) / Fold change /veh OASL (11726364_x_at) / RFU SOX15 (11748057_x_at) / Fold change /veh SOX15 (11748057_x_at) / RFU CD79A (11719716_a_at) / Fold change /veh CD79A (11719716_a_at) / RFU HIST1H1D (11736915_at) / Fold change /veh HIST1H1D (11736915_at) / RFU CASKIN2 (11723855_a_at) / Fold change /veh CASKIN2 (11723855_a_at) / RFU LOC730098 (11760151_x_at) / Fold change /veh LOC730098 (11760151_x_at) / RFU OR4N2 (11742367_at) / Fold change /veh OR4N2 (11742367_at) / RFU PRRT2 (11749266_a_at) / Fold change /veh PRRT2 (11749266_a_at) / RFU SNX32 (11753110_a_at) / Fold change /veh SNX32 (11753110_a_at) / RFU CDHR5 (11726645_a_at) / Fold change /veh CDHR5 (11726645_a_at) / RFU RCAN1 (11760418_a_at) / Fold change /veh RCAN1 (11760418_a_at) / RFU FAM167A (11723789_a_at) / Fold change /veh FAM167A (11723789_a_at) / RFU FAM26E (11764081_at) / Fold change /veh FAM26E (11764081_at) / RFU ISYNA1 (11749810_s_at) / Fold change /veh ISYNA1 (11749810_s_at) / RFU ACY1 (11761880_at) / Fold change /veh ACY1 (11761880_at) / RFU 11764098_at / Fold change /veh 11764098_at / RFU SAMD14 (11745864_x_at) / Fold change /veh SAMD14 (11745864_x_at) / RFU NPB (11741838_a_at) / Fold change /veh NPB (11741838_a_at) / RFU TMPRSS6 (11731388_a_at) / Fold change /veh TMPRSS6 (11731388_a_at) / RFU KRTAP10-2 (11738614_at) / Fold change /veh KRTAP10-2 (11738614_at) / RFU ARHGAP8 /// PRR5-ARHGAP8 (11727945_x_at) / Fold change /veh ARHGAP8 /// PRR5-ARHGAP8 (11727945_x_at) / RFU KRTAP5-7 /// NADSYN1 (11734609_at) / Fold change /veh KRTAP5-7 /// NADSYN1 (11734609_at) / RFU RASL12 (11751679_a_at) / Fold change /veh RASL12 (11751679_a_at) / RFU CDKN2B (11736163_a_at) / Fold change /veh CDKN2B (11736163_a_at) / RFU PRF1 (11729649_at) / Fold change /veh PRF1 (11729649_at) / RFU, ZNF638 /// ZNF638-IT1 / Fold change vs veh, ZNF638 /// ZNF638-IT1 / RFU, PANK3 / Fold change vs veh, PANK3 / RFU, SH3YL1 / Fold change vs veh, SH3YL1 / RFU, ZEB2 / Fold change vs veh, ZEB2 / RFU, NRIP1 / Fold change vs veh, NRIP1 / RFU, PTTG1IP / Fold change vs veh, PTTG1IP / RFU, CAPN2 / Fold change vs veh, CAPN2 / RFU, MED14 / Fold change vs veh, MED14 / RFU, SNORA58 / Fold change vs veh, SNORA58 / RFU, C1orf63 / Fold change vs veh, C1orf63 / RFU, LRRFIP1 / Fold change vs veh, LRRFIP1 / RFU, NDUFAF7 / Fold change vs veh, NDUFAF7 / RFU, SLC12A2 / Fold change vs veh, SLC12A2 / RFU, IBTK / Fold change vs veh, IBTK / RFU, ESF1 / Fold change vs veh, ESF1 / Fold change vs veh, TMEM50B / RFU, TAOK1 / Fold change vs veh, TAOK1 / RFU, ACBD3 / Fold change vs veh, ACBD3 / RFU, TMA16 / Fold change vs veh, TMA16 / RFU, RWDD3 / Fold change vs veh, RWDD3 / RFU, BCAT1 / Fold change vs veh, BCAT1 / RFU, EDEM3 / Fold change vs veh, EDEM3 / RFU, TMEM33 / Fold change vs veh, TMEM33 / RFU, WDR75 / Fold change vs veh, WDR75 / RFU, AHCTF1 / Fold change vs veh, AHCTF1 / RFU, TFRC / Fold change vs veh, TFRC / RFU, ZDHHC17 / Fold change vs veh, ZDHHC17 / RFU, NOM1 / Fold change vs veh, NOM1 / RFU, ARL8B / Fold change vs veh, ARL8B / RFU, ZBTB11 / Fold change vs veh, ZBTB11 / RFU, TAMM41 / Fold change vs veh, TAMM41 / RFU, KIAA1704 /// LOC100996395 / Fold change vs veh, KIAA1704 /// LOC100996395 / RFU, ING1 / Fold change vs veh, ING1 / RFU, TRMT61B / Fold change vs veh, TRMT61B / RFU, FUBP3 / Fold change vs veh, FUBP3 / RFU, TP53 / Fold change vs veh, TP53 / RFU, TNKS2 / Fold change vs veh, TNKS2 / RFU, ZFP14 / Fold change vs veh, ZFP14 / RFU, ACTR2 / Fold change vs veh, ACTR2 / RFU, PPP3R1 / Fold change vs veh, PPP3R1 / RFU, PIK3R1 / Fold change vs veh, PIK3R1 / RFU, HNRNPA1 / Fold change vs veh, HNRNPA1 / RFU, RNF170 / Fold change vs veh, RNF170 / RFU, ZNF28 / Fold change vs veh, ZNF28 / RFU, RNGTT / Fold change vs veh, RNGTT / RFU, OGT / Fold change vs veh, OGT / RFU, BRD1 / Fold change vs veh, BRD1 / RFU, MARS / Fold change vs veh, MARS / RFU, ZNF655 / Fold change vs veh, ZNF655 / RFU, FAHD1 / Fold change vs veh, FAHD1 / RFU, BDP1 / Fold change vs veh, BDP1 / RFU, LRRCC1 / Fold change vs veh, LRRCC1 / RFU, ARID1A / Fold change vs veh, ARID1A / RFU, ZNF146 / Fold change vs veh, ZNF146 / RFU, ZNF330 / Fold change vs veh, ZNF330 / RFU, GPN3 / Fold change vs veh, GPN3 / RFU, C9orf123 / Fold change vs veh, C9orf123 / RFU, N4BP2L2 / Fold change vs veh, N4BP2L2 / RFU, ARFIP1 / Fold change vs veh, ARFIP1 / RFU, FAM179B / Fold change vs veh, FAM179B / RFU, BCL10 / Fold change vs veh, BCL10 / RFU, UHRF1BP1L / Fold change vs veh, UHRF1BP1L / RFU, BET1 / Fold change vs veh, BET1 / RFU, CNOT2 / Fold change vs veh, CNOT2 / RFU, ZNF268 / Fold change vs veh, ZNF268 / Fold change vs veh, ZNF507 / RFU, DGCR2 / Fold change vs veh, DGCR2 / RFU, WDSUB1 / Fold change vs veh, WDSUB1 / Fold change vs veh, HSP90B1 /// MIR3652 / RFU, ADSS / Fold change vs veh, ADSS / RFU, GK / Fold change vs veh, GK / RFU, ZNF148 / Fold change vs veh, ZNF148 / RFU, TAF9 / Fold change vs veh, TAF9 / RFU, SLC1A5 / Fold change vs veh, SLC1A5 / RFU, SLMO2 / Fold change vs veh, SLMO2 / RFU, ABCC4 / Fold change vs veh, ABCC4 / RFU, LOC101060439 /// RAP1B / Fold change vs veh, LOC101060439 /// RAP1B / RFU, RFX7 / Fold change vs veh, RFX7 / RFU, GTPBP10 / Fold change vs veh, GTPBP10 / RFU, CNEP1R1 / Fold change vs veh, CNEP1R1 / RFU, BIVM-ERCC5 /// ERCC5 / Fold change vs veh, BIVM-ERCC5 /// ERCC5 / RFU, ILF3 / Fold change vs veh, ILF3 / RFU 11762660_at / Fold change /veh 11762660_at / RFU VCAN (11757783_s_at) / Fold change /veh VCAN (11757783_s_at) / RFU DDX43 (11728927_at) / Fold change /veh DDX43 (11728927_at) / RFU KRT8 (11758188_x_at) / Fold change /veh KRT8 (11758188_x_at) / RFU NKD1 (11759106_at) / Fold change /veh NKD1 (11759106_at) / RFU SRD5A1 (11742802_a_at) / Fold change /veh SRD5A1 (11742802_a_at) / RFU TPSAB1 /// TPSB2 (11721975_s_at) / Fold change /veh TPSAB1 /// TPSB2 (11721975_s_at) / RFU GSTM3 (11746129_a_at) / Fold change /veh GSTM3 (11746129_a_at) / RFU IL23R (11737362_x_at) / Fold change /veh IL23R (11737362_x_at) / RFU TMEM51 (11727254_a_at) / Fold change /veh TMEM51 (11727254_a_at) / RFU PIWIL2 (11732686_x_at) / Fold change /veh PIWIL2 (11732686_x_at) / RFU ORM1 (11744905_x_at) / Fold change /veh ORM1 (11744905_x_at) / RFU CCDC152 (11743942_at) / Fold change /veh CCDC152 (11743942_at) / RFU ECM1 (11717891_a_at) / Fold change /veh ECM1 (11717891_a_at) / RFU IL23R (11748794_a_at) / Fold change /veh IL23R (11748794_a_at) / RFU TNFAIP8L3 (11732012_x_at) / Fold change /veh TNFAIP8L3 (11732012_x_at) / RFU MBOAT4 (11741988_at) / Fold change /veh MBOAT4 (11741988_at) / RFU 11764193_at / Fold change /veh 11764193_at / RFU TMEM53 (11763286_at) / Fold change /veh TMEM53 (11763286_at) / RFU MAGEB2 (11727129_at) / Fold change /veh MAGEB2 (11727129_at) / RFU TMEM200A (11744735_a_at) / Fold change /veh TMEM200A (11744735_a_at) / RFU CCDC152 (11751479_a_at) / Fold change /veh CCDC152 (11751479_a_at) / RFU FAM211A (11726209_a_at) / Fold change /veh FAM211A (11726209_a_at) / RFU RGS16 (11746705_a_at) / Fold change /veh RGS16 (11746705_a_at) / RFU VCAN (11755009_s_at) / Fold change /veh VCAN (11755009_s_at) / RFU RHOB (11743442_s_at) / Fold change /veh RHOB (11743442_s_at) / RFU RGS16 (11720943_a_at) / Fold change /veh RGS16 (11720943_a_at) / RFU RGS16 (11720944_at) / Fold change /veh RGS16 (11720944_at) / RFU, VPS4B / Fold change vs veh, VPS4B / RFU, CREB1 / Fold change vs veh, CREB1 / RFU, DNAJC13 / Fold change vs veh, DNAJC13 / RFU, GNAQ / Fold change vs veh, GNAQ / RFU, CDK5R1 / Fold change vs veh, CDK5R1 / RFU, ZRANB3 / Fold change vs veh, ZRANB3 / RFU, CUL4A / Fold change vs veh, CUL4A / RFU, CCNY / Fold change vs veh, CCNY / RFU, UFL1 / Fold change vs veh, UFL1 / RFU, COG3 / Fold change vs veh, COG3 / RFU, DIAPH2 / Fold change vs veh, DIAPH2 / RFU, SKA2 / Fold change vs veh, SKA2 / RFU, AFF3 / Fold change vs veh, AFF3 / RFU, LMF1 / Fold change vs veh, LMF1 / RFU, IPO11 / Fold change vs veh, IPO11 / RFU, DFFB / Fold change vs veh, DFFB / RFU, FOXP1 / Fold change vs veh, FOXP1 / RFU, CARD8 / Fold change vs veh, CARD8 / RFU, STRN3 / Fold change vs veh, STRN3 / RFU, ADK / Fold change vs veh, ADK / RFU, RASSF2 / Fold change vs veh, RASSF2 / RFU, WIPF1 / Fold change vs veh, WIPF1 / RFU, LARP1B / Fold change vs veh, LARP1B / RFU, RASA1 / Fold change vs veh, RASA1 / RFU, RB1 / Fold change vs veh, RB1 / RFU, PPFIA1 / Fold change vs veh, PPFIA1 / RFU, MAT2A / Fold change vs veh, MAT2A / RFU, CCT5 / Fold change vs veh, CCT5 / RFU, WDR92 / Fold change vs veh, WDR92 / RFU, CUX1 / Fold change vs veh, CUX1 / RFU, TTC7A / Fold change vs veh, TTC7A / RFU, TMEM135 / Fold change vs veh, TMEM135 / RFU, DEPTOR / Fold change vs veh, DEPTOR / RFU, CPM / Fold change vs veh, CPM / RFU, DNAJB6 / Fold change vs veh, DNAJB6 / RFU, CACNA2D3 / Fold change vs veh, CACNA2D3 / RFU, DTX4 / Fold change vs veh, DTX4 / RFU, TFCP2 / Fold change vs veh, TFCP2 / RFU, GMCL1 /// GMCL1P1 / Fold change vs veh, GMCL1 /// GMCL1P1 / RFU, AEBP2 / Fold change vs veh, AEBP2 / RFU, SNHG1 /// SNORD22 /// SNORD25 /// SNORD26 /// SNORD27 /// SNORD28 /// SNORD29 /// SNORD31 / Fold change vs veh, SNHG1 /// SNORD22 /// SNORD25 /// SNORD26 /// SNORD27 /// SNORD28 /// SNORD29 /// SNORD31 / Fold change (Aza/veh), C12orf56 (ProbeSet 11735607_a_at) / Fold change (ACY-1035/veh), C12orf56 (ProbeSet 11735607_a_at) / Fold change (Aza/veh), FGFR1OP (ProbeSet 11751329_s_at) / Fold change (ACY-1035/veh), FGFR1OP (ProbeSet 11751329_s_at) / Fold change (Aza/veh), VPS36 (ProbeSet 11739960_a_at) / Fold change (ACY-1035/veh), VPS36 (ProbeSet 11739960_a_at) / RFU SYPL1 (11715823_x_at) / Fold change /veh SYPL1 (11715823_x_at) / RFU IGFBP7 (11715501_s_at) / Fold change /veh IGFBP7 (11715501_s_at) / RFU REEP3 (11722064_at) / Fold change /veh REEP3 (11722064_at) / RFU IGLL1 (11728026_x_at) / Fold change /veh IGLL1 (11728026_x_at): dose or concentration left out as unconfirmed
Conditions: MV-4-11 cells, 48 hours

Nc1ccc(-c2cccs2)cc1NC(=O)c1ccc2c(c1)cc(C1CC1)n2CCN1CCOCC1 [ACY-1035]
RFU ABCC12 (11746883_a_at): 8.23 RFU
